From publication PMC8128909, “Characterization of a new bifunctional endo-1,4-β-xylanase/esterase found in the rumen metagenome” (Scientific Reports, 2021)

Test system: T1, XylR
T1 construct: without predicted 21-residue signal peptide; His6 (C-terminal as printed), pET28a(+), E. coli BL21(DE3); 75 kDa on SDS-PAGE; motifs 159WDVVNEA163, 280TELD283, 624GLSMG628
Assay: spectrophotometric p-nitrophenol release at […] nm, Michaelis-Menten fit
Type: biochemical, uncultured bacterium (Nelore cattle rumen metagenome)
Details: 0.1 M sodium acetate pH 6.5, 37 °C; substrate 0.75 to 5 mM; esterase activity

Q: `CC(=O)Oc1ccc([N+](=O)[O-])cc1` [C2, p-nitrofenyl acetate] was tested. Which Km did it give?
A: 2300 ± 400 µM
